# Measured values: US20220017566A1, “TERPINOID DERIVATIVES AND USES THEREOF” (SICHUAN HAISCO PHARMACEUTICAL CO., LTD., priority 2018, published 2022)
# Where two headings read alike, the source gives them in different places.
# Tests used:
# NQO1 = NQO1 activity assay in Raw264.7 cell lysates; assay type: cell-based; settings: Mus musculus; Raw264.7 cells, 48 hours treatment
# Method: Raw264.7 cells were seeded in DMEM+10% FBS in 96-well plates at a density of 10,000 cells per well. 6 hours after plating, cells were treated with DMSO or test compounds (top dose 100 nM, 1:4 serial dilution, 8-point) for 48 hours. NQO1 activity was then detected in cell lysates using NQO1 activity assay kit (Abeam, Cat#ab184867). NQO1 activity was then plotted against compound concentration, and EC50 values were calculated using four-parameter algorithm in Graphpad Prism.
# CYP3A4 = biological target: T1, CYP3A4 (Homo sapiens, UniProt P08684); test: CYP450 enzyme inhibition in liver microsomes (cocktail probe incubation); assay type: in vitro ADME; settings: species not given, 0.05-50 μM tested
# T1 construct: studied in liver microsomes of CD-1 mouse, Sprague Dawley rat, Beagle dog, cynomolgus monkey, and human; from tissue; host or cells: liver microsomes
# Method: (§1) The inhibition potential of test compounds towards major drug metabolizing CYP450 enzymes was studied in liver microsomes of CD-1 mouse, Sprague Dawley rat, Beagle dog, cynomolgus monkey, and human. The inhibition of CYP1A2, CYP2C9, CYP2C19, CYP2D6, and CYP3A4 was assessed using CYP450 specific probe reactions in a cocktail incubation. Seven concentrations of test compounds (0.05, 0.15, 0.5, 1.5, 5, 15, and 50 μM) were evaluated. In addition, known inhibitors for each probe reaction were included as positive controls and incubated at a single concentration above their respective IC50.
# CYP1A2 = biological target: T2, CYP1A2 (Homo sapiens, UniProt P05177); test: as above; assay type: in vitro ADME; settings: species not given, 0.05-50 μM tested
# T2 construct: studied in liver microsomes of CD-1 mouse, Sprague Dawley rat, Beagle dog, cynomolgus monkey, and human; from tissue; host or cells: liver microsomes
# T2 sequence (P05177 1-516): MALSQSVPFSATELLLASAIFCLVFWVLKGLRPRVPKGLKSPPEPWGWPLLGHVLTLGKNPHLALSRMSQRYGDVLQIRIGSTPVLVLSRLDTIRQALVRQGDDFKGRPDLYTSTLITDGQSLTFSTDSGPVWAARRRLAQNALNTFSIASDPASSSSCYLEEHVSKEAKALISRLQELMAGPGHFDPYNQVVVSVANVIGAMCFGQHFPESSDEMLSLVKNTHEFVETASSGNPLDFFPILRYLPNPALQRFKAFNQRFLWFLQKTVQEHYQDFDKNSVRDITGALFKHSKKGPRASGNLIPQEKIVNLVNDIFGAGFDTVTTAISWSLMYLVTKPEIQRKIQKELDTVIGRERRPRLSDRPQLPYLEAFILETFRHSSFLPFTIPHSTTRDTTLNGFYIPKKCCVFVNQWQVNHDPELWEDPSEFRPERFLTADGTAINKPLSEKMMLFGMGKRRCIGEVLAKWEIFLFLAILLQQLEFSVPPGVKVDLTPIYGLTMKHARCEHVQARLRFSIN
# Method: as §1
# CYP2C19 = biological target: T3, CYP2C19 (Homo sapiens, UniProt P33261); test: as above; assay type: in vitro ADME; settings: species not given, 0.05-50 μM tested
# T3 construct: studied in liver microsomes of CD-1 mouse, Sprague Dawley rat, Beagle dog, cynomolgus monkey, and human; from tissue; host or cells: liver microsomes
# Method: as §1
# CYP2C9 = biological target: T4, CYP2C9 (Homo sapiens, UniProt P11712); test: as above; assay type: in vitro ADME; settings: species not given, 0.05-50 μM tested
# T4 construct: studied in liver microsomes of CD-1 mouse, Sprague Dawley rat, Beagle dog, cynomolgus monkey, and human; from tissue; host or cells: liver microsomes
# Method: as §1
# CYP2D6 = biological target: T5, CYP2D6 (Homo sapiens, UniProt P10635); test: as above; assay type: in vitro ADME; settings: species not given, 0.05-50 μM tested
# T5 construct: studied in liver microsomes of CD-1 mouse, Sprague Dawley rat, Beagle dog, cynomolgus monkey, and human; from tissue; host or cells: liver microsomes
# Method: as §1
# [1] = Metabolic stability in rat liver microsomes; assay type: in vitro ADME; settings: Sprague Dawley
# Method: (§2) The metabolic stability of test compounds was examined in CD-1 mouse, Sprague Dawley rat, Beagle dog, cynomolgus monkey, and human liver microsomes. Test compound (final concentration 1 μM) was mixed with diluted liver microsomes from each of the 5 species and a small aliquot was taken at 0, 5, 10, 20, 30, and 60 minutes for LC/MS/MS analysis. Intrinsic clearance and half-life were calculated.
# [2] = Metabolic stability in monkey liver microsomes; assay type: in vitro ADME, cynomolgus monkey
# Method: as §2
# [3] = Pharmacokinetic studies in Sprague Dawley rats (oral gavage and IV); assay type: in vivo; settings: rat, male SD rats, plasma; for AUC(0-t): read-out: AUC0-24 h; for bioavailability: oral 5 mg/kg vs IV 1 mg/kg, read-out: Bioavailibility F %
# Method: The pharmacokinetics of test compounds was evaluated in male SD rats when administered via oral gavage and IV injection. For oral dosing, compound was formulated in 0.5% methylcellulose and administered at doses of 5 mg/kg (3 rats per dose level) and volume of 10 mL/kg. For IV dosing, compound was formulated in 5% DMSO/5% Solutol/90% saline and administered to 3 rats at a dose of 1 mg/kg and a volume of 5 mL/kg. The rats were fasted overnight before administration. Plasma samples were collected predose and at 0.5, 1, 3, 6, 9, 12, and 24 hours postdose. The samples were analyzed by LC/MS/MS and the concentration of test compound at each timepoint was determined by linear regression. Pharmacokinetic parameters were calculated from the plasma concentrations using Pheonix WinNonlin.
# [4] = Metabolic stability in dog liver microsomes; assay type: in vitro ADME; settings: Beagle
# Method: as §2
# [5] = test system: IFNγ-induced NO production in Raw 264.7 cells; test: Nitric oxide assay: suppression of IFNγ-induced NO production (Griess nitrite, adjusted to live cell numbers); assay type: cell-based; settings: Mus musculus, RAW264.7, 2 h pretreatment, IFNγ 10 ng/ml for 24 hours
# Method: Raw 264.7 cells were seeded in 96-well plates at a density of 30, 000 cells per well in DMEM+10% FBS and incubated overnight. The next day, cell media was replaced by DMEM+2% FBS. Cells were pretreated with DMSO or test compounds (top dose 100 nM, 1:4 serial dilution, 10-point) for 2 hours and then treated with recombinant mouse IFNγ (R&D, Cat# 485-MI-100) at a final concentration of 10 ng/ml for 24 hours. Nitrite levels were measured in culture media as a surrogate for nitric oxide using the Griess Reagent System (Promega, Cat# G2930). Cell viability was determined using CellTiter Glo reagents (Promega, Cat#G7572). The nitrite levels were adjusted to live cell numbers and inhibition percentage was calculated. The inhibition percentage was then plotted against compound concentration, and IC50 values were calculated using four-parameter algorithm in Graphpad Prism.
# [6] = Metabolic stability in mouse liver microsomes; assay type: in vitro ADME, CD-1 mouse; settings: CD-1
# Method: as §2
# [7] = Metabolic stability in human liver microsomes; assay type: in vitro ADME
# Method: as §2
# T1 sequence (P08684 whole entry): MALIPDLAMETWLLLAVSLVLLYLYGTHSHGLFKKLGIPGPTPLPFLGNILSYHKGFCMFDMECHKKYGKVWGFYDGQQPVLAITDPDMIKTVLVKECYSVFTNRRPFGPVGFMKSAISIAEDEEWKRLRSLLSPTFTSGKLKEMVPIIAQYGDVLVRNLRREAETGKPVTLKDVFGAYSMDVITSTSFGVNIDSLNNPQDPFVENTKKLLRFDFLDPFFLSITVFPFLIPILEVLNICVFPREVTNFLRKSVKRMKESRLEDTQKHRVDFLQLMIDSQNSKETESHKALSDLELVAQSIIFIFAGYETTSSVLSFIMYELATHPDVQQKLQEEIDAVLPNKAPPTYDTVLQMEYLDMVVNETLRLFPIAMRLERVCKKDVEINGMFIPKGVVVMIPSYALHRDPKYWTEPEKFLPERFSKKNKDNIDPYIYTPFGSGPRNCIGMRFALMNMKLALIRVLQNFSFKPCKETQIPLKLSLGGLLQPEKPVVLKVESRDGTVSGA
# T4 sequence (P11712 whole entry): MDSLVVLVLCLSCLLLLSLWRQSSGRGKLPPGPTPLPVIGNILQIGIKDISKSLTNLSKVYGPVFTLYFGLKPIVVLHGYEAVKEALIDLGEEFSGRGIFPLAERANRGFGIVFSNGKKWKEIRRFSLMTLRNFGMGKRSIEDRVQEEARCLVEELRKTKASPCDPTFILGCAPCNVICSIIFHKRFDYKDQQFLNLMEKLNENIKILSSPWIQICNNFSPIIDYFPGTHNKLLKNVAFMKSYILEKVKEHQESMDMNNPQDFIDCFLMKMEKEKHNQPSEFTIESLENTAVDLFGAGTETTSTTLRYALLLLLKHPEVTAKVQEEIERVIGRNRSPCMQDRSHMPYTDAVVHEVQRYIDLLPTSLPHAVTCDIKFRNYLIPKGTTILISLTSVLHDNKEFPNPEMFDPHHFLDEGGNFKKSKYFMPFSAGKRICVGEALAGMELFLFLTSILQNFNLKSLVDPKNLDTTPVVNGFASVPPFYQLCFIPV
# T3 sequence (P33261 whole entry): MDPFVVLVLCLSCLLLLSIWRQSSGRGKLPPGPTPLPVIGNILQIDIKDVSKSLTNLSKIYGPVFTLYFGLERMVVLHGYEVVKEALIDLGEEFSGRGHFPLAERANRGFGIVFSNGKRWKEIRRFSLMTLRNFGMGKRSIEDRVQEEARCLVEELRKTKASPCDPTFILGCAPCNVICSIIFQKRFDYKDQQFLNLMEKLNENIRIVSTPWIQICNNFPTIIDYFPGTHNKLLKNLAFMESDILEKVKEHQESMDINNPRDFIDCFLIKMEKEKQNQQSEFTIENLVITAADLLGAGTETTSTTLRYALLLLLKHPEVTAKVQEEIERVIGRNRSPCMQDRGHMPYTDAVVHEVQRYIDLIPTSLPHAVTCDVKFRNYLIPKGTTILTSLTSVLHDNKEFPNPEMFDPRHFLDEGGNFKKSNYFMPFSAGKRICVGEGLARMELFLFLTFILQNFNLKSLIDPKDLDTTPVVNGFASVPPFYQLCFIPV
# T5 sequence (P10635 whole entry): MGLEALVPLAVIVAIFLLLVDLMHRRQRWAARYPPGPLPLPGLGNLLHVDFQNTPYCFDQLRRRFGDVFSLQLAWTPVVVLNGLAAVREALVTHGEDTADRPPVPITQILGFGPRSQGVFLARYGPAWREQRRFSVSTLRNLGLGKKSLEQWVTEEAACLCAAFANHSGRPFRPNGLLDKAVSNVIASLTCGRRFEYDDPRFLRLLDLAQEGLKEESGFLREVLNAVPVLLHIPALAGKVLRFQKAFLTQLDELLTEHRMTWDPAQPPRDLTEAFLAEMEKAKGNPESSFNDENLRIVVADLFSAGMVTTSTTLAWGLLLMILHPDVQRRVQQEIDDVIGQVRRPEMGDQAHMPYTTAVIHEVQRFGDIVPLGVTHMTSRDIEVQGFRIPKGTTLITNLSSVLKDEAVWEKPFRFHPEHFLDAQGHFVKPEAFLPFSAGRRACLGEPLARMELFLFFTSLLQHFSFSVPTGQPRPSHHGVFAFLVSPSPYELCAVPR
EC50 (NQO1) [nM],IC50 (CYP3A4) [nM],IC50 (CYP1A2) [µM],IC50 (CYP2C19) [µM],IC50 (CYP2C9) [nM],IC50 (CYP2D6) [µM],CLint scaled at 1 μM [1] [mL/min/kg],half-life at 1 μM [1] [min],CLint scaled at 1 μM [2] [mL/min/kg],half-life at 1 μM [2] [min],C0 ([3]; IV (1 mg/kg)) [ng/mL],clearance ([3]; IV (1 mg/kg)) [mL/min/kg],half-life ([3]; IV (1 mg/kg)) [min],CLint scaled at 1 μM [4] [mL/min/kg],half-life at 1 μM [4] [min],IC50 [5] [nM],CLint scaled at 1 μM [6] [mL/min/kg],half-life at 1 μM [6] [min],CLint scaled at 1 μM [7] [mL/min/kg],half-life at 1 μM [7] [min],Compound,other results
< 10,2600,> 50,5.2,1700,> 50,832,3,949,2,365,56.8,378,78,25.6,< 10,180,30.6,95.4,13.1,"COC(=O)[C@]12CCC(C)(C)C[C@H]1[C@H]1C(=O)C=C3[C@@]4(C)C=C(C#N)C(=O)C(C)(C)[C@@H]4CC[C@@]3(C)[C@]1(C)CC2 [Control, reference compound]",AUC(0-t) ([3]; IV (1 mg/kg)): 291 ng·h/mL; Cmax ([3]; Oral (5 mg/kg)): 7 ng/mL; half-life ([3]; Oral (5 mg/kg)): 204 min; AUC(0-t) ([3]; Oral (5 mg/kg)): 26 ng·h/mL; bioavailability [3]: 1.8%
< 10,1000,> 50,11.8,2700,15,42,59.4,269,7,349,63.8,102,37,54,< 10,423,13,168,7.4,"Cc1nnc([C@@]2(C)CC[C@]3(C)CC[C@]4(C)[C@H](C(=O)C=C5[C@@]6(C)C=C(C#N)C(=O)C(C)(C)[C@@H]6CC[C@]54C)[C@@H]3C2)o1 [Example 1, (4aR,6aS,6bR,8aS,11S,12aS,12bR,14bS)-4,4,6a,6b,8a,11,14b-heptamethyl-11-(5-methyl-1,3,4-oxadiazol-2-yl)-3,13-dioxo-3,4,4a,5,6,6a,6b,7,8,8a,9,10,11,12,12a,12b,13,14b-octadecahydropicene-2-carbonitrile]",AUC(0-t) ([3]; IV (1 mg/kg)): 258 ng·h/mL; Cmax ([3]; Oral (5 mg/kg)): 170 ng/mL; half-life ([3]; Oral (5 mg/kg)): 132 min; AUC(0-t) ([3]; Oral (5 mg/kg)): 1100 ng·h/mL; bioavailability [3]: 83.8%
< 10,1700,> 50,25.4,2200,20.2,157,15.9,782,2.4,500,53,72,313,6.4,–,1750,3.1,397,3.1,"CC1(C)C(=O)C(C#N)=C[C@]2(C)C3=CC(=O)[C@@H]4[C@@H]5C[C@@](C)(C#N)CC[C@]5(C)CC[C@@]4(C)[C@]3(C)CC[C@@H]12 [Example 2, (2S,4aS,6aR,6bS,8aR,12aS,14aR,14bS)-2,4a,6a,6b,9,9,12a-heptamethyl-10,14-dioxo-1,2,3,4,4a,5,6,6a,6b,7,8,8a,9,10,12a,14,14a,14b-octadecahydropicene-2,11-dicarbonitrile]",AUC(0-t) ([3]; IV (1 mg/kg)): 314 ng·h/mL; Cmax ([3]; Oral (5 mg/kg)): 177 ng/mL; half-life ([3]; Oral (5 mg/kg)): 78 min; AUC(0-t) ([3]; Oral (5 mg/kg)): 521 ng·h/mL; bioavailability [3]: 33.2%
10 to 100,6700,> 50,17.8,3400,4.7,50.3,49.6,156,12,–,–,–,81.6,24.5,< 10,150,36.5,50.7,24.6,"CNC(=NC#N)NC[C@]12CCC(C)(C)C[C@H]1[C@H]1C(=O)C=C3[C@@]4(C)C=C(C#N)C(=O)C(C)(C)[C@@H]4CC[C@@]3(C)[C@]1(C)CC2 [Example 3, 2-cyano-1-(((4aS,6aR,6bS,8aR,12aS,14aR,14bS)-11-cyano-2,2,6a,6b,9,9,12a-heptamethyl-10,14-dioxo-1,3,4,5,6,6a,6b,7,8,8a,9,10,12a,14,14a,14b-hexadecahydropicen-4a(2H)-yl)methyl)-3-methylguanidine]",–
10 to 100,–,–,–,–,–,–,–,–,–,–,–,–,–,–,< 10,–,–,–,–,"C/S(CC(=O)N[C@]12CCC(C)(C)C[C@H]1[C@H]1C(=O)C=C3[C@@]4(C)C=C(C#N)C(=O)C(C)(C)[C@@H]4CC[C@@]3(C)[C@]1(C)CC2)=N\C#N (stereo partly drawn) [Example 5, N-((4aS,6aR,6bS,8aR,12aS,14aR,14bS)-11-cyano-2,2,6a,6b,9,9,12a-heptamethyl-10,14-dioxo-1,3,4,5,6,6a,6b,7,8,8a,9,10,12a,14,14a,14b-hexadecahydropicen-4a(2H)-yl)-2-((E)-N-cyano-S-methylsulfinimidoyl)acetamide]",–
< 10,3200,> 50,18.9,8600,> 50,–,–,–,–,–,–,–,–,–,< 10,–,–,–,–,"CC1(C)C(=O)C(C#N)=C[C@]2(C)C3=CC(=O)[C@@H]4[C@@H]5C[C@@](C)(N6CCC(O)C6)CC[C@]5(C)CC[C@@]4(C)[C@]3(C)CC[C@@H]12 (stereo partly drawn) [Example 20, (4aR,6aS,6bR,8aS,11S,12aS,12bR,14bS)-11-(3-hydroxypyrrolidin-1-yl)-4,4,6a,6b,8a,11,14b-heptamethyl-3,13-dioxo-3,4,4a,5,6,6a,6b,7,8,8a,9,10,11,12,12a,12b,13,14b-octadecahydropicene-2-carbonitrile]",–
